Test results reported in US8791132B2, “Compounds and methods for treatment of hypertension” (Medivation Technologies, Inc., priority 2011, dated 2014).

Key:
[1] = target: T1, human recombinant adrenergic α2B receptor (Homo sapiens, UniProt P18089); assay: Radioligand binding, adrenergic α2B ([3H]Rauwolscine); conditions: for Percentage inhibition of ligand binding, Adrenergic α2B / inhibition at 0.03 µM: 0.03 μM compound; for Percentage inhibition of ligand binding, Adrenergic α2B / Percentage inhibition of ligand binding, Adrenergic α2B (0.03 μM): 0.03 µM; for Percentage inhibition of ligand binding, Adrenergic α2B (0.03 μM): compound at 0.03 μM, [3H]Rauwolscine, repeat datapoints each shown
T1 construct: expressed in transfected cells; host or cells: CHO-K1
T1 sequence (P18089 1-450): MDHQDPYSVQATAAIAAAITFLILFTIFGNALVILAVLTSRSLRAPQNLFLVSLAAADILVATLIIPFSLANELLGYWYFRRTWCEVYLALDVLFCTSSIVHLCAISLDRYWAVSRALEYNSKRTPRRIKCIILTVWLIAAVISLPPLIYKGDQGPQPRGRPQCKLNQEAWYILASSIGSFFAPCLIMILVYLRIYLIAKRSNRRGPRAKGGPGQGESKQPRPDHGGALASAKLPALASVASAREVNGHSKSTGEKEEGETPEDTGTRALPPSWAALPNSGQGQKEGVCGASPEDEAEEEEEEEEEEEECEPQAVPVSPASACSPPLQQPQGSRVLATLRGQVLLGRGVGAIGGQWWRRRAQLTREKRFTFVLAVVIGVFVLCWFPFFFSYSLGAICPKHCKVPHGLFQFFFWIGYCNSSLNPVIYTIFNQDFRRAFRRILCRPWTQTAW
Procedure, shortened: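 Membranes from CHO-K1 cells expressing human recombinant α2B, in 50 mM Tris-HCl pH 7.4, 12.5 mM MgCl2, 1 mM EDTA, 0.2% BSA, incubated with compound and 2.5 nM [3H]Rauwolscine, 60 min, 25 °C.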

[2] = target: T2, human recombinant adrenergic α2A receptor (Homo sapiens, UniProt P08913); assay: Radioligand binding, adrenergic α2A ([3H]MK-912); conditions: for Percentage inhibition of ligand binding, Adrenergic α2A / inhibition at 0.1 µM: 0.1 μM compound; for Percentage inhibition of ligand binding, Adrenergic α2A / Percentage inhibition of ligand binding, Adrenergic α2A (0.1 μM): 0.1 µM; for inhibition at 0.1 µM: read-out: Percentage inhibition of ligand binding, Adrenergic α2A; for Percentage inhibition of ligand binding, Adrenergic α2A (0.1 μM): compound at 0.1 μM, [3H]MK-912, repeat datapoints each shown
T2 construct: expressed in transfected cells; host or cells: insect Sf9 cells
T2 sequence (P08913 1-465): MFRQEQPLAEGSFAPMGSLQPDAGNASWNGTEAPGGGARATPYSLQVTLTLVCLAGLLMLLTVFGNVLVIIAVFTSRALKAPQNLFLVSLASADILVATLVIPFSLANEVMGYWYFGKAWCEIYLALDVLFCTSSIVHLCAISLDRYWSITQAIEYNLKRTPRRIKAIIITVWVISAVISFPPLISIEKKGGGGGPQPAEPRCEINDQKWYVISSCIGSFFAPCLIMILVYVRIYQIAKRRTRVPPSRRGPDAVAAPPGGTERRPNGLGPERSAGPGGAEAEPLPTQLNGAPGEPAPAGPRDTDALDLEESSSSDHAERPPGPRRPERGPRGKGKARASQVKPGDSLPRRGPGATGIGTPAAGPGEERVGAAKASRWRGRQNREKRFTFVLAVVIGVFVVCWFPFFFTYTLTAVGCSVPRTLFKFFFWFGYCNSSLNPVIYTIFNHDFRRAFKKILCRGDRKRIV
Procedure, shortened: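 Sf9 membranes, 1 nM [3H]MK-912, 60 min, 25 °C, Tris-HCl pH 7.4/MgCl2/EDTA buffer. NSB: 10 μM WB-4101. Filtration, counting; % inhibition of specific binding.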

[3] = target: T3, rat adrenergic α1B receptor (Rattus norvegicus, UniProt P15823); assay: Radioligand binding, adrenergic α1B ([3H]Prazosin); conditions: for Percentage inhibition of ligand binding, Adrenergic α1B (0.1 μM): compound at 0.1 μM, [3H]Prazosin, repeat datapoints each shown
T3 construct: rat adrenergic α1B receptor obtained from Wistar Rat liver; from tissue; host or cells: Wistar rat liver
T3 sequence (P15823 1-515): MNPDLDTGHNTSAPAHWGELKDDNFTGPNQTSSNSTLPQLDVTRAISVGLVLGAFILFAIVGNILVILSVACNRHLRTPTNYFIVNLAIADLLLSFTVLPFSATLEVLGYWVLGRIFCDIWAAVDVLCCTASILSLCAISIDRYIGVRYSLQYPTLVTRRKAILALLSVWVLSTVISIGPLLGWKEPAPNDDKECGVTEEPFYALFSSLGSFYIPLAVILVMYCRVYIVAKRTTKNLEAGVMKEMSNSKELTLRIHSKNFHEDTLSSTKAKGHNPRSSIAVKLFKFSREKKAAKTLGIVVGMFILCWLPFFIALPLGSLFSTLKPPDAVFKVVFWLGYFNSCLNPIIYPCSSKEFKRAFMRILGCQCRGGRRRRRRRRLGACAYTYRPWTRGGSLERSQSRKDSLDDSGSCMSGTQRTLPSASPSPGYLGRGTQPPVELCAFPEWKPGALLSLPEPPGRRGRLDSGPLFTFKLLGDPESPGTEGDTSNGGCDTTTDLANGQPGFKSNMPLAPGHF
Procedure, shortened: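 Specific binding, taken as total minus that remaining with 10 μM phentolamine, is measured after filtration and counting. Rat liver receptor preparation and 0.25 nM [3H]prazosin are incubated with compound in 50 mM Tris-HCl (pH 7.4, 0.5 mM EDTA) at 25° C for 60 min. Activity is reported as percent inhibition.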

[4] = read-out: Percentage inhibition of ligand binding, Adrenergic α2B

CNC(Cn1c2c(c3cc(C)ccc31)CN(C)CC2)c1ccc(F)cc1 (single isomer, unassigned) [II-12b, 2-(2,8-dimethyl-3,4-dihydro-1H-pyrido[4,3-b]indol-5(2H)-yl)-1-(4-fluorophenyl)-N-methyl ethanamine]
Percentage inhibition of ligand binding, Adrenergic α2B [1]: 65%
Percentage inhibition of ligand binding, Adrenergic α2A [2]: 15%
Percentage inhibition of ligand binding, Adrenergic α1B ([3]; 0.1 μM compound, 0.1 µM): 11%

Cc1ccc2c(c1)c1c(n2CC(c2ccc(F)cc2)N(C)C)CCN(C)C1 (single isomer, unassigned) [II-14a, 2-(2,8-dimethyl-3,4-dihydro-1H-pyrido[4,3-b]indol-5(2H)-yl)-1-(4-fluorophenyl)-N,N-dimethylethanamine]
Percentage inhibition of ligand binding, Adrenergic α2B [1]: 88%
inhibition at 0.1 µM [2]: 34%
Percentage inhibition of ligand binding, Adrenergic α1B ([3]; 0.1 μM compound, 0.1 µM): 30%

Cc1ccc2c(c1)c1c(n2CC(c2ccc(F)cc2)N(C)C)CCN(C)C1 (single isomer, unassigned) [II-14b, 2-(2,8-dimethyl-3,4-dihydro-1H-pyrido[4,3-b]indol-5(2H)-yl)-1-(4-fluorophenyl)-N,N-dimethylethanamine]
Percentage inhibition of ligand binding, Adrenergic α2B [1]: 33%
Percentage inhibition of ligand binding, Adrenergic α2A [2]: 17%
Percentage inhibition of ligand binding, Adrenergic α1B ([3]; 0.1 μM compound, 0.1 µM): 8%

CC(=O)OC(C)(Cn1c2c(c3cc(C)ccc31)CN(C)CC2)c1cccnc1 (single isomer, unassigned) [II-15a, acetic acid 2-(2,8-dimethyl-1,2,3,4-tetrahydro-pyrido[4,3-b]indol-5-yl)-1-methyl-1-pyridin-3-yl-ethyl ester]
inhibition at 0.03 µM [1, 4]: 47%
Percentage inhibition of ligand binding, Adrenergic α2A [2]: 7%
Percentage inhibition of ligand binding, Adrenergic α1B ([3]; 0.1 μM compound, 0.1 µM): 61%

CC(=O)OC(C)(Cn1c2c(c3cc(C)ccc31)CN(C)CC2)c1cccnc1 (single isomer, unassigned) [II-15b, acetic acid 2-(2,8-dimethyl-1,2,3,4-tetrahydro-pyrido[4,3-b]indol-5-yl)-1-methyl-1-pyridin-3-yl-ethyl ester]
Percentage inhibition of ligand binding, Adrenergic α2B [1]: 40%
Percentage inhibition of ligand binding, Adrenergic α2A [2]: 18%
Percentage inhibition of ligand binding, Adrenergic α1B ([3]; 0.1 μM compound, 0.1 µM): 5%

Cc1ccc2c(c1)c1c(n2CC(C)(OC(=O)C(C)(C)C)c2cccnc2)CCN(C)C1 (single isomer, unassigned) [II-16b, 2,2-dimethyl-propionic acid 2-(2,8-dimethyl-1,2,3,4-tetrahydro-pyrido[4,3-b]indol-5-yl)-1-methyl-1-pyridin-3-yl-ethyl ester]
Percentage inhibition of ligand binding, Adrenergic α2B [1]: 73%
inhibition at 0.03 µM [1, 4]: 65%
inhibition at 0.1 µM ([1]; 0.1 μM compound, read-out: Percentage inhibition of ligand binding, Adrenergic α2B): 88%
Ki ([1]; read-out: Ki α2B): 5.58 nM
inhibition at 0.1 µM [2]: 32%
inhibition at 0.03 µM ([3]; 0.03 μM compound, read-out: Percentage inhibition of ligand binding, Adrenergic α1B): 16%
Percentage inhibition of ligand binding, Adrenergic α1B ([3]; 0.1 μM compound, 0.1 µM): 46%
inhibition at 0.1 µM ([3]; 0.1 μM compound, read-out: Percentage inhibition of ligand binding, Adrenergic α1B): 32%

Cc1ccc2c(c1)c1c(n2CC(O)c2ccccc2F)CN(C)CC1 (single isomer, unassigned) [II-49a, 2-(2,6-dimethyl-3,4-dihydro-1H-pyrido[3,4-b]indol-9(2H)-yl)-1-(2-fluorophenyl)ethanol]
inhibition at 0.03 µM [1, 4]: 43%
inhibition at 0.1 µM [2]: 34%
Percentage inhibition of ligand binding, Adrenergic α1B ([3]; 0.1 μM compound, 0.1 µM): 47%

Cc1ccc2c(c1)c1c(n2CC(O)c2ccccc2F)CN(C)CC1 (single isomer, unassigned) [II-49b, 2-(2,6-dimethyl-3,4-dihydro-1H-pyrido[3,4-b]indol-9(2H)-yl)-1-(2-fluorophenyl)ethanol]
Percentage inhibition of ligand binding, Adrenergic α2B [1]: 50%
Percentage inhibition of ligand binding, Adrenergic α2A [2]: 18%
Percentage inhibition of ligand binding, Adrenergic α1B ([3]; 0.1 μM compound, 0.1 µM): 69%

OCCN1CCc2c(c3cc(Cl)ccc3n2CC(O)c2cccnc2)C1 (single isomer, unassigned) [II-94b]
Percentage inhibition of ligand binding, Adrenergic α2B [1]: 24%
Percentage inhibition of ligand binding, Adrenergic α2A [2]: −5%
Percentage inhibition of ligand binding, Adrenergic α1B ([3]; 0.1 μM compound, 0.1 µM): 7%

Cc1ccc2c(c1)c1c(n2C(C)C(O)c2ccccc2)CCN(C)C1 (single isomer, unassigned) [II-95a, 2-(2,8-dimethyl-1,2,3,4-tetrahydro-pyrido[4,3-b]indol-5-yl)1-phenyl-propan-1-ol]
Percentage inhibition of ligand binding, Adrenergic α2B [1]: 53%
Percentage inhibition of ligand binding, Adrenergic α2A [2]: 16%
Percentage inhibition of ligand binding, Adrenergic α1B ([3]; 0.1 μM compound, 0.1 µM): 32%

Cc1ccc2c(c1)c1c(n2C(C)C(O)c2ccccc2)CCN(C)C1 (single isomer, unassigned) [II-95b, 2-(2,8-dimethyl-1,2,3,4-tetrahydro-pyrido[4,3-b]indol-5-yl)1-phenyl-propan-1-ol]
Percentage inhibition of ligand binding, Adrenergic α2B [1]: 12%
Percentage inhibition of ligand binding, Adrenergic α2A [2]: −1%
Percentage inhibition of ligand binding, Adrenergic α1B ([3]; 0.1 μM compound, 0.1 µM): −1%

Cc1cnc2c(c1)c1c(n2CC(C)(O)c2cccnc2)CCN(C)C1 (single isomer, unassigned) [II-99a]
Percentage inhibition of ligand binding, Adrenergic α2B [1]: 49%
inhibition at 0.1 µM [2]: 24%
Percentage inhibition of ligand binding, Adrenergic α1B ([3]; 0.1 μM compound, 0.1 µM): 12%

Cc1cnc2c(c1)c1c(n2CC(C)(O)c2cccnc2)CCN(C)C1 (single isomer, unassigned) [II-99b]
Percentage inhibition of ligand binding, Adrenergic α2B [1]: 7%
Percentage inhibition of ligand binding, Adrenergic α2A [2]: 16%
Percentage inhibition of ligand binding, Adrenergic α1B ([3]; 0.1 μM compound, 0.1 µM): 5%

Cc1cnc2c(c1)c1c(n2CC(O)c2ccc(C)nc2)CCN(C)C1 (single isomer, unassigned) [II-100b]
Percentage inhibition of ligand binding, Adrenergic α2B [1]: 1%
Percentage inhibition of ligand binding, Adrenergic α2A [2]: 4%
Percentage inhibition of ligand binding, Adrenergic α1B ([3]; 0.1 μM compound): 24%

Cc1cnc2c(c1)c1c(n2CC(C)(O)c2ccc(C(F)(F)F)nc2)CCN(C)C1 (single isomer, unassigned) [II-108a]
Percentage inhibition of ligand binding, Adrenergic α2B (0.03 μM) [1]: 27%
Percentage inhibition of ligand binding, Adrenergic α2A (0.1 μM) [2]: −2%
Percentage inhibition of ligand binding, Adrenergic α1B (0.1 μM) ([3]; 0.1 µM): 13%

Cc1cnc2c(c1)c1c(n2CC(C)(O)c2ccc(C(F)(F)F)nc2)CCN(C)C1 (single isomer, unassigned) [II-108b]
Percentage inhibition of ligand binding, Adrenergic α2B (0.03 μM) [1]: 11%
Percentage inhibition of ligand binding, Adrenergic α2A (0.1 μM) [2]: −6%
Percentage inhibition of ligand binding, Adrenergic α1B (0.1 μM) ([3]; 0.1 µM): −2%

CN1CCc2c(c3cc(Cl)cnc3n2CC(C)(O)c2ccc(C(F)(F)F)nc2)C1 (single isomer, unassigned) [II-109a]
Percentage inhibition of ligand binding, Adrenergic α2B (0.03 μM) [1]: 41%
Percentage inhibition of ligand binding, Adrenergic α2A (0.1 μM) [2]: 2%
Percentage inhibition of ligand binding, Adrenergic α1B (0.1 μM) ([3]; 0.1 µM): 27%

CN1CCc2c(c3cc(Cl)cnc3n2CC(C)(O)c2ccc(C(F)(F)F)nc2)C1 (single isomer, unassigned) [II-109b]
Percentage inhibition of ligand binding, Adrenergic α2B (0.03 μM) [1]: 2%
Percentage inhibition of ligand binding, Adrenergic α2A (0.1 μM) [2]: −10%
Percentage inhibition of ligand binding, Adrenergic α1B (0.1 μM) ([3]; 0.1 µM): 5%
